Patent US20230183259A1, “Crystal Form Of Thiofuran Pyridazine Compound, Preparation Method Therefor And Application Thereof” (ZHEJIANG MEDICINE CO., LTD. XINCHANG PHARMACEUTICAL FACTORY, priority 2020, published 2023)

What was measured:
[1] = acceleration test (stability); format: physicochemical; conditions: 40° C.±2° C., relative humidity 75%±5%
Experimental: (§1) Stability tests were performed on the samples of Examples 1, 2, 3, 4 and 5. […] Please refer to the results of the acceleration test (40° C.±2° C., relative humidity 75%±5%) of Table 1 and the results of the long-term stability test (25° C.±2° C., relative humidity 60%±10%) of Table 2.

long-term stability test = format: physicochemical; conditions: 25° C.±2° C., relative humidity 60%±10%
Experimental: as §1

(S)-2-(4-fluorophenyl)-4-(piperidine-3-aminomethyl)thieno[2,3-d]pyridazine-7-carboxamide hydrochloride [Example 110601-2]
(%) Impurity B (%) ([1]; 0 month): 0.00% | Crystal form ([1]; 0 month): unchanged | appearance ([1]; 0 month): yellow crystalline powder | Enantiomer (%) ([1]; 0 month, hydrochloride): 0.09% | Impurity A (%) ([1]; 0 month, hydrochloride): 0.32% | Impurity C (%) ([1]; 0 month, hydrochloride): 0.02% | Loss on drying (%) ([1]; 0 month, hydrochloride): 7.3% | Single largest impurity (%) ([1]; 0 month, hydrochloride): 0.02% | Total relevant substances (%) ([1]; 0 month, hydrochloride): 0.42% | content(%) ([1]; 0 month, hydrochloride): 98.7% | Crystal form ([1]; 1 month): unchanged | Impurity C (%) ([1]; 1 month): 0.02% | appearance ([1]; 1 month): yellow crystalline powder | (%) Impurity B (%) ([1]; 1 month, hydrochloride): 0.03% | Enantiomer (%) ([1]; 1 month, hydrochloride): 0.12% | Impurity A (%) ([1]; 1 month, hydrochloride): 0.28% | Loss on drying (%) ([1]; 1 month, hydrochloride): 7.3% | Single largest impurity (%) ([1]; 1 month, hydrochloride): 0.03% | Total relevant substances (%) ([1]; 1 month, hydrochloride): 0.42% | content(%) ([1]; 1 month, hydrochloride): 99.5% | Crystal form ([1]; 2 months): unchanged | appearance ([1]; 2 months): yellow crystalline powder | (%) Impurity B (%) ([1]; 2 months, hydrochloride): 0.04% | Enantiomer (%) ([1]; 2 months, hydrochloride): 0.1% | Impurity A (%) ([1]; 2 months, hydrochloride): 0.31% | Impurity C (%) ([1]; 2 months, hydrochloride): 0.03% | Loss on drying (%) ([1]; 2 months, hydrochloride): 7.2% | Single largest impurity (%) ([1]; 2 months, hydrochloride): 0.02% | Total relevant substances (%) ([1]; 2 months, hydrochloride): 0.44% | content(%) ([1]; 2 months, hydrochloride): 99.1% | (%) Impurity B (%) ([1]; 3 months): 0.00% | Crystal form ([1]; 3 months): unchanged | Impurity C (%) ([1]; 3 months): 0.02% | appearance ([1]; 3 months): yellow crystalline powder | Enantiomer (%) ([1]; 3 months, hydrochloride): 0.09% | Impurity A (%) ([1]; 3 months, hydrochloride): 0.25% | Loss on drying (%) ([1]; 3 months, hydrochloride): 7.3% | Single largest impurity (%) ([1]; 3 months, hydrochloride): 0.02% | Total relevant substances (%) ([1]; 3 months, hydrochloride): 0.34% | content(%) ([1]; 3 months, hydrochloride): 99.9% | (%) Impurity B (%) ([1]; 6 months): 0.00% | Crystal form ([1]; 6 months): unchanged | Impurity C (%) ([1]; 6 months): 0.02% | appearance ([1]; 6 months): yellow crystalline powder | Enantiomer (%) ([1]; 6 months, hydrochloride): 0.07% | Impurity A (%) ([1]; 6 months, hydrochloride): 0.25% | Loss on drying (%) ([1]; 6 months, hydrochloride): 7.2% | Single largest impurity (%) ([1]; 6 months, hydrochloride): 0.02% | Total relevant substances (%) ([1]; 6 months, hydrochloride): 0.33% | content(%) ([1]; 6 months, hydrochloride): 100.1% | Crystal form (long-term stability test; 0 month): unchanged | ImpurityB(%) (long-term stability test; 0 month): 0.00% | Content (calculated by dried product )(%) (long-term stability test; 0 month, hydrochloride): 98.7% | Enantiomers (%) (long-term stability test; 0 month, hydrochloride): 0.09% | ImpurityA(%) (long-term stability test; 0 month, hydrochloride): 0.32% | ImpurityC(%) (long-term stability test; 0 month, hydrochloride): 0.02% | Loss on drying (%) (long-term stability test; 0 month, hydrochloride): 7.3% | Single largest impurity (%) (long-term stability test; 0 month, hydrochloride): 0.02% | Total relevant substances (%) (long-term stability test; 0 month, hydrochloride): 0.42% | appearance (long-term stability test; 0 month, hydrochloride): yellow crystalline | Crystal form (long-term stability test; 3 months): unchanged | ImpurityB(%) (long-term stability test; 3 months): 0.00% | ImpurityC(%) (long-term stability test; 3 months): 0.02% | Content (calculated by dried product )(%) (long-term stability test; 3 months, hydrochloride): 99.8% | Enantiomers (%) (long-term stability test; 3 months, hydrochloride): 0.09% | ImpurityA(%) (long-term stability test; 3 months, hydrochloride): 0.30% | Loss on drying (%) (long-term stability test; 3 months, hydrochloride): 7.3% | Single largest impurity (%) (long-term stability test; 3 months, hydrochloride): 0.03% | Total relevant substances (%) (long-term stability test; 3 months, hydrochloride): 0.39% | appearance (long-term stability test; 3 months, hydrochloride): yellow crystalline | Crystal form (long-term stability test; 6 months): unchanged | ImpurityB(%) (long-term stability test; 6 months): 0.00% | Content (calculated by dried product )(%) (long-term stability test; 6 months, hydrochloride): 99.7% | Enantiomers (%) (long-term stability test; 6 months, hydrochloride): 0.07% | ImpurityA(%) (long-term stability test; 6 months, hydrochloride): 0.25% | ImpurityC(%) (long-term stability test; 6 months, hydrochloride): 0.02% | Loss on drying (%) (long-term stability test; 6 months, hydrochloride): 7.2% | Single largest impurity (%) (long-term stability test; 6 months, hydrochloride): 0.02% | Total relevant substances (%) (long-term stability test; 6 months, hydrochloride): 0.34% | appearance (long-term stability test; 6 months, hydrochloride): yellow crystalline | Crystal form (long-term stability test; 9 months): unchanged | ImpurityC(%) (long-term stability test; 9 months): 0.02% | Content (calculated by dried product )(%) (long-term stability test; 9 months, hydrochloride): 99.6% | Enantiomers (%) (long-term stability test; 9 months, hydrochloride): 0.08% | ImpurityA(%) (long-term stability test; 9 months, hydrochloride): 0.27% | ImpurityB(%) (long-term stability test; 9 months, hydrochloride): 0.02% | Loss on drying (%) (long-term stability test; 9 months, hydrochloride): 7.3% | Single largest impurity (%) (long-term stability test; 9 months, hydrochloride): 0.02% | Total relevant substances (%) (long-term stability test; 9 months, hydrochloride): 0.38% | appearance (long-term stability test; 9 months, hydrochloride): yellow crystalline | Crystal form (long-term stability test; 12 months): unchanged | ImpurityB(%) (long-term stability test; 12 months): 0.01% | Single largest impurity (%) (long-term stability test; 12 months): 0.02% | Content (calculated by dried product )(%) (long-term stability test; 12 months, hydrochloride): 99.7% | Enantiomers (%) (long-term stability test; 12 months, hydrochloride): 0.07% | ImpurityA(%) (long-term stability test; 12 months, hydrochloride): 0.26% | ImpurityC(%) (long-term stability test; 12 months, hydrochloride): 0.03% | Loss on drying (%) (long-term stability test; 12 months, hydrochloride): 7.4% | Total relevant substances (%) (long-term stability test; 12 months, hydrochloride): 0.36% | appearance (long-term stability test; 12 months, hydrochloride): yellow crystalline | Crystal form (long-term stability test; 18 months): unchanged | ImpurityB(%) (long-term stability test; 18 months): 0.00% | Single largest impurity (%) (long-term stability test; 18 months): 0.02% | Content (calculated by dried product )(%) (long-term stability test; 18 months, hydrochloride): 100.7% | Enantiomers (%) (long-term stability test; 18 months, hydrochloride): 0.07% | ImpurityA(%) (long-term stability test; 18 months, hydrochloride): 0.30% | ImpurityC(%) (long-term stability test; 18 months, hydrochloride): 0.02% | Loss on drying (%) (long-term stability test; 18 months, hydrochloride): 7.2% | Total relevant substances (%) (long-term stability test; 18 months, hydrochloride): 0.36% | appearance (long-term stability test; 18 months, hydrochloride): yellow crystalline | Crystal form (long-term stability test; 24 months): unchanged | Enantiomers (%) (long-term stability test; 24 months): 0.08% | ImpurityB(%) (long-term stability test; 24 months): 0.00% | ImpurityC(%) (long-term stability test; 24 months): 0.02% | Single largest impurity (%) (long-term stability test; 24 months): 0.02% | Content (calculated by dried product )(%) (long-term stability test; 24 months, hydrochloride): 99.1% | ImpurityA(%) (long-term stability test; 24 months, hydrochloride): 0.30% | Loss on drying (%) (long-term stability test; 24 months, hydrochloride): 7.2% | Total relevant substances (%) (long-term stability test; 24 months, hydrochloride): 0.37% | appearance (long-term stability test; 24 months, hydrochloride): yellow crystalline | Crystal form (long-term stability test; 36 months): unchanged | ImpurityC(%) (long-term stability test; 36 months): 0.02% | Single largest impurity (%) (long-term stability test; 36 months): 0.02% | Content (calculated by dried product )(%) (long-term stability test; 36 months, hydrochloride): 99.5% | Enantiomers (%) (long-term stability test; 36 months, hydrochloride): 0.06% | ImpurityA(%) (long-term stability test; 36 months, hydrochloride): 0.31% | ImpurityB(%) (long-term stability test; 36 months, hydrochloride): 0.02% | Loss on drying (%) (long-term stability test; 36 months, hydrochloride): 7.2% | Total relevant substances (%) (long-term stability test; 36 months, hydrochloride): 0.43% | appearance (long-term stability test; 36 months, hydrochloride): yellow crystalline
